{
  "source": "patent US10316100B2",
  "about": "“Treating basal-like genotype cancers” (The UAB Research Foundation, priority 2009, dated 2019)",
  "key": {"[1]": {"tested_on": "human pancreatic cancer cells, S013 and S2VP10", "assay": "Effect of AT-406 on TRA-8-induced apoptosis of pancreatic cancer cells", "assay_type": "cell-based", "settings": "10 μM AT-406 alone", "text": "To determine whether AT-406 is able to overcome DR5-apoptosis resistance of pancreatic cancer cells, the effect of AT-406 on TRA-8-induced apoptosis was examined for two lines of human pancreatic cancer cells, S013 and S2VP10, both of which are highly resistant to TRA-8-mediated apoptosis. […] To determine the effect of AT-406 on the DR5/DDX3/cIAP1 protein complex, the amount of cIAP1 was examined by DR5-coIP. […] This was not due to the reduction of DR5-associated DDX3 as DDX3 was equally co-immunoprecipitated with DR5."}, "[2]": {"tested_on": "TRAIL-mediated apoptosis", "settings": "cited from earlier work"}, "[3]": {"tested_on": "IAP proteins associated with DDX3", "assay": "IAP proteins in the DDX3 complex, breast cancer cell lines (DDX3 immunoprecipitation, 3H4 blot)", "assay_type": "cell-based, human", "settings": "panel of breast cancer cell lines; 1000 ng/ml TRA-8, 10 uM AT-406, overnight", "experimental": "FIGS. 10A, 10B, and 10C show the in vitro effect of AT-406 on IAPs in breast cancer cell lines. Human breast cancer cell lines (MB436 and 2LMP (FIG. 10A), SUM159 and SUM149 (FIG. 10B), BT474 and MB468 (FIG. 10C) were treated with control medium (lane 1) or 1000 ng/ml TRA-8 (lane 2), or 10 uM AT-406 (lane 3) or both (lane 4) overnight. Cell lysates from treated cells were immunoprecipitated with an anti-DDX3 antibody (clone 3E4). The precipitated proteins were western blotted and the IAP proteins were detected by 3H4 antibody.\nEffect of AT-406 on expression of IAP proteins in the DDX3 complex was analyzed in a panel of breast cancer cell lines including triple negative and non-triple negative lines. As previously shown, four triple negative breast cancer lines, […], 2LMP (FIG. 10A), SUM 159, and SUM 149 (FIG. 10B) expressed lower levels of cIAP1 or cIAP2 protein when co-immunoprecipitated with DDX3, compared to two non-triple negative lines, BT474 and MB468 (FIG. 10C), which were resistant to TRA-8-mediated apoptosis."}, "[4]": {"tested_on": "IAP proteins", "assay": "Western blot of IAP proteins in total cell lysates with 3H4 antibody, pancreatic cancer cells", "assay_type": "cell-based, human", "settings": "S2013 and S2VP10; 1000 ng/ml TRA-8, 10 uM AT-406, overnight"}, "[5]": {"target": "cIAP1 (Homo sapiens, UniProt Q13490)", "sequence (Q13490 whole entry)": "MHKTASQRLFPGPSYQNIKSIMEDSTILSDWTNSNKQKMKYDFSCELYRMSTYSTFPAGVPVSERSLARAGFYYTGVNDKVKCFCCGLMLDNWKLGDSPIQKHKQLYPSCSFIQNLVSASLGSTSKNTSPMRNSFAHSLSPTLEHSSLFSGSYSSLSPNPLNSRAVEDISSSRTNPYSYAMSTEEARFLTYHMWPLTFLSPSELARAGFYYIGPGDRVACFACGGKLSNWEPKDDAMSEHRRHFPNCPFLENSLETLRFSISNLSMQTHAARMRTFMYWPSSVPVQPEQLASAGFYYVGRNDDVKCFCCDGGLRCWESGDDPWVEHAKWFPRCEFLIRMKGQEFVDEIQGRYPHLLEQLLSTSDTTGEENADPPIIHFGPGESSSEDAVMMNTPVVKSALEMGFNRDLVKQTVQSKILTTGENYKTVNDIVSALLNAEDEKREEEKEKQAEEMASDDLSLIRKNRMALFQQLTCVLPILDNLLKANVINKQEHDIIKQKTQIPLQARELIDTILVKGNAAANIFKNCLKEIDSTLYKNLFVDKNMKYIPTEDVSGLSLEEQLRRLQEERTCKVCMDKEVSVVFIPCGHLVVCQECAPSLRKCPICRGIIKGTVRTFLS", "settings": "cited from earlier work"}, "[6]": {"target": "cIAP2 (Homo sapiens, UniProt Q13489)", "sequence (Q13489 whole entry)": "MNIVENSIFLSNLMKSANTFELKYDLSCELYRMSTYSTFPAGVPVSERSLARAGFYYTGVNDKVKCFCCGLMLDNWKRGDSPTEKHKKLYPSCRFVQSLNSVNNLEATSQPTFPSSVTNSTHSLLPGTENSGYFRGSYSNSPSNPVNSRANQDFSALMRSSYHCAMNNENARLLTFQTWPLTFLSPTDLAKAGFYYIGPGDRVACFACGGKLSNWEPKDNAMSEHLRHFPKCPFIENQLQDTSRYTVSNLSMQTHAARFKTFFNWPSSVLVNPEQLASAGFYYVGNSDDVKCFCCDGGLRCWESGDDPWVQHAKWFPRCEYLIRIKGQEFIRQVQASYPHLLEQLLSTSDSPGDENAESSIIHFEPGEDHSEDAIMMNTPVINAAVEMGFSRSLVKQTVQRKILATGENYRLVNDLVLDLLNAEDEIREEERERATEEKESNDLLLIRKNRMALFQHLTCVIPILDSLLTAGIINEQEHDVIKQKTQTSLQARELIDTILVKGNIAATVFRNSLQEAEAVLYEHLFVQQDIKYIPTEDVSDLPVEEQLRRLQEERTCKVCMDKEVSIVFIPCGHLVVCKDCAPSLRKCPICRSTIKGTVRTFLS", "settings": "cited from earlier work"}, "[7]": {"target": "T1, DR5/DDX3/cIAP1 protein complex (Homo sapiens, UniProt Q13490)", "T1 construct": "endogenous in cells; host or cells: S2013 (printed S013) and S2VP10 human pancreatic cancer cells", "T1 sequence (Q13490 whole entry, one chain of several)": "as the sequence (Q13490 whole entry) above", "assay": "cIAP1 in the DR5 complex by DR5-coIP, pancreatic cancer cells", "assay_type": "cell-based", "settings": "10 uM AT-406, 1000 ng/ml TRA-8, overnight"}, "[8]": {"target": "XIAP (Homo sapiens, UniProt P98170)", "sequence (P98170 whole entry)": "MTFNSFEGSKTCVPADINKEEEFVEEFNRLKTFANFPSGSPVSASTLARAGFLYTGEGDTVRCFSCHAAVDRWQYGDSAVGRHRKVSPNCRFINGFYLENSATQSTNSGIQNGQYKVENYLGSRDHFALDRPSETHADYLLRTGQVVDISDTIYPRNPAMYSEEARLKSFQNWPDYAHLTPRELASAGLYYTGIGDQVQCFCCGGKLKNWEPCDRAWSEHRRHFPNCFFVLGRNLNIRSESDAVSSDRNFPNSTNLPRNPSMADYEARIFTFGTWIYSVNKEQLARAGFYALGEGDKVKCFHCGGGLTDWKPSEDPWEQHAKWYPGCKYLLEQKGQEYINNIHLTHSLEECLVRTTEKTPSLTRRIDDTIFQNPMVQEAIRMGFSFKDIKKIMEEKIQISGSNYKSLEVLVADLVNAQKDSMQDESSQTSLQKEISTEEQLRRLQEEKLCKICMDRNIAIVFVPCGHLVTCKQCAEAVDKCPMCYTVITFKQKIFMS", "settings": "cited from earlier work"}, "[9]": {"tested_on": "SUM159 orthotopic basal B xenografts", "assay": "In vivo efficacy against SUM159 orthotopic xenografts", "design": "species or system athymic nude mice", "settings": "untreated 17.9 days", "experimental": "(§1) The arrows indicate the interval during which antibody was administered (n=9-10 mice/group).\n(§2) Treatments were initiated once tumors were well-established, with tumor diameters of about 6 mm, and tumor size was monitored over time."}, "[10]": {"tested_on": "2LMP orthotopic basal B xenografts", "assay": "In vivo efficacy against 2LMP orthotopic xenografts", "design": "species or system athymic nude mice", "settings": "2LMP xenografts; untreated 8.6 days", "experimental": "as §1, §2"}, "[11]": {"tested_on": "triple negative breast cell (TNBC) cell lines (basal)", "assay": "TRA-8 cytotoxicity against the panel of TNBC cell lines", "assay_type": "cell-based, human", "settings": "cell lines of basal B subtype (FIG. 1)"}, "[12]": {"tested_on": "DDX3", "assay": "siRNA mediated knockdown of DDX3, Western blot in TRA-8-resistant MDA231 cells", "assay_type": "cell-based, human", "settings": "among five RNAi constructs", "text": "Design RNAi: an online design tool, BLOCK-iT RNAi Designer (Invitrogen; Carlsbad, Calif.), was used to identify RNAi targets for DDX3. Five targeted siRNA sequences were selected from the top 10 highest scoring RNAi targets (see Table 1).\nThey were then cloned into the BLOCK-iT U6 entry vector. The siRNA is driven by the U6 promoter and can be transiently expressed in most dividing or nondividing mammalian cell types. Resistant cells were transfected with RNAi used LIPOFECTAMINE 2000 (Invitrogen; Carlsbad, Calif.) for the RNAi response. The decreased DDX3 expression was determined by Western blot analysis using anti-DDX3 antibody 36 hours after transfection. […]\nTo study the role of DDX3 in DR5 signaling, the importance of endogenous DDX3 in TRA-8-induced apoptosis was examined. […] TRA-8-resistant MDA231 cells were transfected with five RNAi constructs, and protein expression levels of DDX3 were determined by Western blot analysis using monoclonal anti-DDX3 antibody 48 hours post-transfection. […] To further determine the causal role of DDX3 in DR5-mediated apoptosis, DDX3 expression was reduced in a panel of tumor cells and their susceptibility to TRA-8-induced apoptosis analyzed. […]"}},
  "data": [
    {"molecule": "CN[C@@H](C)C(=O)N[C@H]1CN(C(=O)CC(C)C)CC[C@H]2CC[C@@H](C(=O)NC(c3ccccc3)c3ccccc3)N2C1=O", "note": "[AT-406]", "values": [
      {"measurement": "cell death", "setting": "[1]", "result": "did not induce significant cell death"},
      {"measurement": "effect on TRAIL-mediated apoptosis", "setting": "[2]", "result": "synergistically enhances"},
      {"measurement": "levels of the IAP proteins associated with DDX3", "setting": "[3]", "result": "significantly reduced"},
      {"measurement": "total IAP protein expression", "setting": "[4]", "result": "did not alter"},
      {"measurement": "affinity", "setting": "[5]", "result": "low nanomolar affinity"},
      {"measurement": "affinity", "setting": "[6]", "result": "low nanomolar affinity"},
      {"measurement": "amount of cIAP1 in the DR5 complex", "setting": "[7]", "result": "dramatic reduction"},
      {"measurement": "affinity", "setting": "[8]", "result": "low nanomolar affinity"}
    ]},
    {"molecule": "COc1cccc2c1C(=O)c1c(O)c3c(c(O)c1C2=O)C[C@@](O)(C(=O)CO)C[C@@H]3O[C@H]1C[C@H](N)[C@H](O)[C@H](C)O1", "note": "[Adriamycin]", "values": [
      {"measurement": "mean tumor doubling time", "setting": "[9]", "result": 41.9, "unit": "days"},
      {"measurement": "tumor doubling time", "setting": "[10]", "result": 51.1, "unit": "days"}
    ]},
    {"molecule": "TRAIL: Recombinant soluble TRAIL purchased from Alexis Biochemicals", "values": [
      {"measurement": "cytotoxicity compared with TRA-8", "setting": "[11]", "result": "Equivalent cytotoxicity"}
    ]},
    {"molecule": "construct #2: DDX3 RNAi construct 562-582, SEQ ID NO: 6 and 7 (nucleic acid, expressed or natural sequence) chain 1: CACCGGAGAAATTATCATGGGAAACCGAAGTTTCCCATGATAATTTCTCC chain 2: AAAAGGAGAAATTATCATGGGAAACTTCGGTTTCCCATGATAATTTCTCC", "values": [
      {"measurement": "rank as inhibitor of DDX3 expression", "setting": "[12]", "result": "most effective"}
    ]}
  ]
}
